Results as given in publication PMC9866218, “Characterization and Chemical Synthesis of Cm39 (α-KTx 4.8): A Scorpion Toxin That Inhibits Voltage-Gated K^+ Channel KV1.2 and Small- and Intermediate-Conductance Ca^2+-Activated K^+ Channels KCa2.2 and KCa3.1” (Toxins, 2023).

Assays:
Assay type in all cases: cell-based
hKCa3.1 = target: T1, hKCa3.1 (Homo sapiens, UniProt O15554); experiment: Whole-cell patch-clamp, block of KCa3.1 current
T1 construct: EGFP (vector pEGFP-C1); expressed in transfected cells; host or cells: CHO cells, transient transfection
T1 sequence (O15554 whole entry): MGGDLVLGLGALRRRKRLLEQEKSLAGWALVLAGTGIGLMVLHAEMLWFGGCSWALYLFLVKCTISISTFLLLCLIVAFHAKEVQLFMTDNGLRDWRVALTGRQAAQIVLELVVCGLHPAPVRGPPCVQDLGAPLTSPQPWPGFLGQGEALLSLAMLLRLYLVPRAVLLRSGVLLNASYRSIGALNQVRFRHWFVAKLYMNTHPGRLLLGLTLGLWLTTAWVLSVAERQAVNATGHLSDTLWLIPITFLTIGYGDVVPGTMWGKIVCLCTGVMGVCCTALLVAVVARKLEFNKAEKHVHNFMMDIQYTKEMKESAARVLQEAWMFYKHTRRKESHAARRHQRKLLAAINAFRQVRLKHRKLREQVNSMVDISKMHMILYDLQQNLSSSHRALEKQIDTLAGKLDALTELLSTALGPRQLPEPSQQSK
Source text: (§1) We, therefore, aimed at testing the pharmacological activity of sCm39 on a battery of various potassium and sodium ion channels. Among the tested channels were six members of human voltage-gated K^+ (hKV) channels from Shaker family, hKV1.1-hKV1.6 (Figure 3A–F) and three members of Ca^2+-activated potassium channel; hKCa2.2 (SK2, Figure 3I), the small-conductance Ca^2+-activated channel; hKCa3.1 (IKCa1, SK4. Figure 3J), the intermediate-conductance Ca^2+-activated channel expressed in T lymphocytes; and mKCa1.1 (BK, Slo1, MaxiK, Figure 3H), the large-conductance voltage- and Ca^2+-activated channel of mice. In addition, we also screened the effect of Cm39 on hKV11.1 (hERG1, Figure 3G), a voltage-gated cardiac K^+ channel, and two human voltage-gated sodium (hNaV) channels, hNaV1.4 (Figure 3K) and hNaV1.5 (Figure 3L), expressed in skeletal and cardiac muscles, respectively. These ion channels were heterologously expressed in the CHO or HEK cell lines except for KV1.3. Human peripheral T lymphocytes. They were stimulated with Phytohemagglutinin A (PHA) to increase the KV1.3 channel expression, and Ca^2+-free intracellular solution was used to avoid KCa3.1 channel activation. Appropriate depolarization protocols were used to record ionic currents in voltage-clamped cells (see Figure 3 insets and Material and Methods for details). Freshly dissolved sCm39 in extracellular solution was applied at 1 µM concentration on the cell using a custom-built micro-perfusion system at ~200 µL/min flow rate.
(§2) The whole-cell K^+ currents of CHO cells transiently expressing KCa2.2 or KCa3.1 channels were recorded sequentially by applying the 150 ms long voltage ramp to +50 mV from Vh of −120 mV every 10 s in the presence of control solution or upon perfusing the cell with different concentrations of sCm39. Normalized peak currents were calculated and plotted as function of time as shown in Figure 5A for KCa2.2 and in Figure 5C for KCa3.1 in the presence of the toxin at various concentrations and upon wash-out. […] RCF values were determined at equilibrium block in the presence of various concentrations of sCm39 and fitted with the Hill equation (see Materials and Methods for details).
(§3) Chinese hamster ovary (CHO) cells (gift from Yosef Yarden, Weizmann Institute of Science, Rehovot, Israel) were maintained by culturing in Dulbecco’s modified Eagle medium (DMEM, Gibco) supplemented with 2 mM L-glutamine, 10% FBS, 100 µg/mL streptomycin and 100 U/mL penicillin-g (Sigma-Aldrich) at a density of 0. 5−1×10^6 cells per mL in a humidified incubator at 37 °C and 5% CO2. Cells were passaged 3 times in a week following a 2–5 min incubation in 0.05% trypsin-EDTA solution at 37 °C. Cultures were used up to passage number 20. PCR-based tests were routinely used to detect mycoplasma infection, only mycoplasma-free cultures were used for experiments.
(§4) Those plasmids which lack a fluorescent tag were co-transfected with a plasmid encoding GFP. Transfections were performed at a GFP:channel DNA molar ratio of 1:10 using the Lipofectamine 2000 kit (Invitrogen) according to the manufacturer’s protocol. […] Generally, currents were recorded 24 to 48 h post transfection.
(§5) For the measurement of KV1.x, mKCa1.1 and NaV1.x currents the extracellular solution was composed of (in mM) 145 NaCl, 5 KCl, 2.5 CaCl2, 1 MgCl2, 10 HEPES and 5.5 glucose, pH 7.35.

hKCa2.2 = target: T2, hKCa2.2 (Homo sapiens, UniProt Q9H2S1); experiment: Whole-cell patch-clamp, block of KCa2.2 current
T2 construct: expressed in transfected cells; host or cells: CHO cells, transient transfection, co-transfected with a GFP plasmid
T2 sequence (Q9H2S1 whole entry): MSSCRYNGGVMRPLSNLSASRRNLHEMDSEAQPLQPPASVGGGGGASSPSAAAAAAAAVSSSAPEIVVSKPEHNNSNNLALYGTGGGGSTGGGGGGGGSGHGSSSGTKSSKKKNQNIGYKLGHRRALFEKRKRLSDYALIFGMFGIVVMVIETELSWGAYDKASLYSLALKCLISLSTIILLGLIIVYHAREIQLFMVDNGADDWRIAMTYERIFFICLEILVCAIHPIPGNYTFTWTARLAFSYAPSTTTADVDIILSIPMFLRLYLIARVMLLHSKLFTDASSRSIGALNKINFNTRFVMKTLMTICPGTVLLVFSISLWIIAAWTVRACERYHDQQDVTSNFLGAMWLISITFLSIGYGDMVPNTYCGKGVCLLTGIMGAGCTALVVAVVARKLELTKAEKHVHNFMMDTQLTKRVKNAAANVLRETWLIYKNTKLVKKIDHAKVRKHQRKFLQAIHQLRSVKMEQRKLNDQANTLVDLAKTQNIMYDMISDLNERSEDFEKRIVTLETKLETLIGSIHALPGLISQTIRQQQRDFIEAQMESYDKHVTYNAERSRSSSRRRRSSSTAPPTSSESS
Source text: as §1, §2, §3, §4, §5

hKV1.2 = target: T3, hKV1.2 (Homo sapiens, UniProt P16389); experiment: Whole-cell patch-clamp, block of KV1.2 current
T3 construct: GFP (vector pCMV6-AC-GFP); host or cells: CHO cells, transient transfection
T3 sequence (P16389 whole entry): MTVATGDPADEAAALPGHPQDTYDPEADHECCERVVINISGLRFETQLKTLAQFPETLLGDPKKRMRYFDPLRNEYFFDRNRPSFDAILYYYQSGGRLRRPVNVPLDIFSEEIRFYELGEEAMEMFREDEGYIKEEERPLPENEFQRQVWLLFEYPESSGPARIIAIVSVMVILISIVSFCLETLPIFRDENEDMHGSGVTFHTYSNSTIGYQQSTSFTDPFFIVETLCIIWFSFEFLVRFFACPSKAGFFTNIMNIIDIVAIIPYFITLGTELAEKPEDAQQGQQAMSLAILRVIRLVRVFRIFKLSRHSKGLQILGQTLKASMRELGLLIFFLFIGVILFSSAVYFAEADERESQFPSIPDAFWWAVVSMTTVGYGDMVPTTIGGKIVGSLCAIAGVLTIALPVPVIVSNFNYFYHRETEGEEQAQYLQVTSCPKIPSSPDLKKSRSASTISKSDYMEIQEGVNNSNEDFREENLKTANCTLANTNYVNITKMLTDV
Source text: as §1
For comprehensive characterization of Cm39 activity on KV1.2, we determined the concentration–response of current inhibition by Cm39, the kinetic parameters of its binding and assessed the effect on voltage dependence of steady-state activation. The whole-cell KV1.2 currents were recorded in CHO cells using depolarization pulses to +50mV from −120mV holding potential (Vh) every 15 s. Since the activation kinetics of KV1.2 are highly variable, the duration of pulses was set on a cell-by-cell basis between 15–300 ms to allocate sufficient time for reaching maximum currents at the test potentials. […] The remaining current fractions (RCF = I/I0, where I0 is the peak current in the absence of the toxin, and I is the peak current at equilibrium block in the presence of sCm39 at a given concentration) were calculated and plotted as a function of toxin concentration.
Single-exponential decay functions were fitted to the normalized peak currents in the presence of each sCm39 concentration (Figure 4C, data points in red shades) to determine the time constant for the onset of block (τon, wash-in or association time constant). The dissociation time constant for the relief from block (τoff, wash-out time constant) was obtained by fitting a single-exponential rising function to the normalized peak currents in the wash-out procedure (Figure 4C, data point in black empty circles). Assuming a simple bimolecular interaction between the toxin and the channel, time constants for the onset and recovery from the block can be stated as follows:(1) τon=1/kon×[toxin]+koff , τoff=1/koff where kon represents the second-order association rate constant, koff indicates the first-order dissociation rate constant and [toxin] is the sCm39 concentration. […] The second-order rate constant of association (kon) was determined by fitting the 1/τon data points using linear regression with koff as the y-intercept.

[1] = 1 µM, CHO cells, current at +48 mV, n = 3−5 (Figure 3M)
[2] = wash-out with toxin-free solution

## CC[C@H](C)[C@@H]1NC(=O)[C@H](C)NC(=O)[C@H](C)NC(=O)[C@H](CCCCN)NC(=O)[C@@H]2CSSC[C@@H](C(=O)N[C@@H](Cc3ccc(O)cc3)C(=O)N[C@@H](Cc3ccc(O)cc3)C(=O)O)NC(=O)[C@H](CCCCN)NC(=O)[C@@H]3CSSC[C@H](NC(=O)[C@H](CCC(=O)O)NC(=O)[C@H](CO)NC(=O)[C@H](CO)NC(=O)[C@H](CO)NC(=O)[C@H](CCCCN)NC(=O)[C@@H](NC(=O)[C@H](CCCCN)NC(=O)[C@H](Cc4c[nH]cn4)NC(=O)[C@H](CC(N)=O)NC(=O)[C@@H](NC(=O)[C@H](Cc4ccccc4)NC(=O)[C@@H](N)[C@@H](C)O)[C@@H](C)CC)CSSC[C@H](NC(=O)[C@H](CCCCN)NC(=O)CNC(=O)[C@H](CO)NC(=O)[C@H](C)NC(=O)[C@H](CCCNC(=N)N)NC(=O)CNC1=O)C(=O)N[C@@H]([C@@H](C)CC)C(=O)N[C@@H](CC(N)=O)C(=O)N[C@@H](CO)C(=O)N[C@@H]([C@@H](C)O)C(=O)N3)C(=O)N[C@@H](CC(C)C)C(=O)N1CCC[C@H]1C(=O)N[C@@H](C)C(=O)N2 [Cm39]
hKCa3.1; [1]
  reduction of current at equilibrium block: 86%
hKCa3.1; CHO cells
  toxin association and dissociation kinetics: fast
hKCa3.1; CHO cells, listed as sCm39
  toxin association and dissociation kinetics: very fast
hKCa3.1; concentration-response of KCa3.1 block, CHO cells
  Hill coefficient (H): 0.68
hKCa3.1; pulses separated by 10 s
  development and almost full recovery from equilibrium block: 1–3 depolarization pulses
hKCa3.1; [2]
  reversibility of KCa3.1 block: fully reversible
hKCa2.2; [1]
  reduction of current at equilibrium block: 55%
hKCa2.2; CHO cells
  toxin association and dissociation kinetics: fast
hKCa2.2; CHO cells, listed as sCm39
  toxin association and dissociation kinetics: very fast
hKCa2.2; concentration-response of KCa2.2 block, CHO cells
  Hill coefficient (H): 0.7
hKCa2.2; pulses separated by 10 s
  development and almost full recovery from equilibrium block: 1–3 depolarization pulses
hKCa2.2; [2]
  reversibility of KCa2.2 block: fully reversible
hKV1.2; 5 nM, CHO cells, pulses to +50 mV, read-out: inhibition of KV1.2 current at equilibrium block
  inhibition at 0.005 µM: ~5%
hKV1.2; 20 nM, CHO cells, pulses to +50 mV, read-out: inhibition of KV1.2 current at equilibrium block
  inhibition at 0.02 µM: ~22%
hKV1.2; 50 nM, CHO cells, pulses to +50 mV, read-out: inhibition of KV1.2 current at equilibrium block
  inhibition at 0.05 µM: ~43%
hKV1.2; 100 nM, CHO cells, pulses to +50 mV, read-out: inhibition of KV1.2 current at equilibrium block
  inhibition at 0.1 µM: ~62%
hKV1.2; 250 nM, CHO cells, pulses to +50 mV, read-out: inhibition of KV1.2 current at equilibrium block
  inhibition at 0.25 µM: ~78%
hKV1.2; 500 nM, CHO cells, pulses to +50 mV, read-out: inhibition of KV1.2 current at equilibrium block
  inhibition at 0.5 µM: ~87%
hKV1.2; 1 µM, CHO cells, n = 3−5 (Figure 3M)
  reduction of current at equilibrium block: 95%
hKV1.2; 5−500 nM
  toxin association and dissociation kinetics: fast
hKV1.2; 5−500 nM, listed as sCm39
  toxin association and dissociation kinetics: very fast
hKV1.2; KV1.2 over KV1.3
  selectivity for KV1.2 over KV1.3: > 15 fold
hKV1.2; concentration-response of KV1.2 block, CHO cells
  Hill coefficient: 0.96
hKV1.2; slope of linear regression of 1/τon vs concentration, r^2 = 0.97, CHO cells, read-out: second-order association rate constant kon
  kon: 215000 M⁻¹ s⁻¹
hKV1.2; wash-out with toxin-free solution, 5−500 nM
  reversibility of KV1.2 block: fully reversible
hKV1.2; wash-out, single-exponential fit, CHO cells, simple bimolecular interaction assumed, read-out: dissociation rate constant koff (1/τoff)
  koff: 0.019 ± 0.0013 s⁻¹
